Experimental data as given in US20220226281A1, “COMPOUNDS FOR USE IN ANTI-CANCER IMMUNOTHERAPY” (priority 2019, published 2022).

System: splenocytes from LCMV-CL13 infected IFN-γ-YFP mice
Assay type: cell-based

SMILES	Mean Z-score at 1 μM (reversal of T-cell exhaustion)
CC(C)[C@H]1C(=O)N[C@H](CO)Cc2cc(NC(=O)/C=C/C=C/c3ccc(C(F)(F)F)cc3)ccc2N1C [TPPB]	4.6
O=S(=O)(NCCCCCCc1ccccc1)c1cccc2c(Cl)cccc12 [5-chloro-N-(6-phenylhexyl)naphthalene-1-sulfonamide]	11.1
CC(=O)O[C@@]12[C@H](O)[C@@H](C)[C@@]3(O)C(C=C(CO)C[C@]4(O)C(=O)C(C)=C[C@@H]34)[C@@H]1C2(C)C (some centres unmarked) [Phorbol-13-acetate]	0.9
CC(=O)O[C@@]12C[C@@H](C)[C@@]3(O)[C@@H](C=C(CO)C[C@]4(O)C(=O)C(C)=C[C@@H]34)[C@@H]1C2(C)C [prostratin]	48.9
CCCCCCCCCCCCCC(=O)O[C@@H]1[C@@H](C)[C@@]2(O)C(C=C(CO)C[C@]3(O)C(=O)C(C)=C[C@@H]23)[C@@H]2C(C)(C)[C@]12OC(C)=O (some centres unmarked) [12-O-tetradecanoylphorbol-13-acetate]	17.8
CC1=C[C@]23C(=O)[C@@H](C=C(CO)[C@@H](O)[C@]2(O)[C@H]1O)[C@H]1[C@@H](C[C@H]3C)C1(C)C [Ingenol]	0.6
C/C=C(/C)C(=O)O[C@H]1C(C)=C[C@]23C(=O)[C@@H](C=C(CO)[C@@H](O)[C@]12O)[C@H]1[C@@H](C[C@H]3C)C1(C)C [Ingenol-3-angelate]	30.9
CO[C@@H](CC[C@H](C)[C@H]1O[C@@]23C[C@H](OC(=O)C2=C(O)[C@H](C)CC3(C)C)[C@@H]1C)c1cccc(O)c1 [Neo-debromoaplysiatoxin B]	3.6
